Reference: ChEMBL document CHEMBL1201862, “PubChem BioAssay data set” (2004)
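Grown in 96-well plates, cells were treated for 48 hours with each compound at five concentrations. Insufficient inhibition: endpoint recorded as highest concentration tested. Abbreviation: GI50, concentration required for 50% inhibition of growth.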 Active and inactive are the calls of the source. Cut-off read from the data, not from the text of the source: active = GI50 up to about 1.1 µM and inactive = higher.

Key:
Experiment in all cases: NCI tumour cell line growth inhibition, 48 h
A498 = tested on: A498
HOP-92 = tested on: HOP-92
COLO 205 = tested on: COLO 205
U-251 = tested on: U-251
MDA-MB-231 = tested on: MDA-MB-231
SK-MEL-5 = tested on: SK-MEL-5
A549 = tested on: A549
IGROV-1 = tested on: IGROV-1
UACC-62 = tested on: UACC-62
OVCAR-3 = tested on: OVCAR-3
T47D = tested on: T47D
SK-OV-3 = tested on: SK-OV-3
Malme-3M = tested on: Malme-3M
SW-620 = tested on: SW-620
NCI/ADR-RES = tested on: NCI/ADR-RES
NCI-H522 = tested on: NCI-H522
EKVX = tested on: EKVX
OVCAR-5 = tested on: OVCAR-5
NCI-H23 = tested on: NCI-H23
M14 = tested on: M14
HCC 2998 = tested on: HCC 2998
HCT-116 = tested on: HCT-116
HOP-62 = tested on: HOP-62
OVCAR-4 = tested on: OVCAR-4
TK-10 = tested on: TK-10
HT-29 = tested on: HT-29
HL-60 = tested on: HL-60
RPMI-8226 = tested on: RPMI-8226
OVCAR-8 = tested on: OVCAR-8
786-0 = tested on: 786-0
CAKI-1 = tested on: CAKI-1
BT-549 = tested on: BT-549
UO-31 = tested on: UO-31
RXF 393 = tested on: RXF 393
HCT-15 = tested on: HCT-15
NCI-H226 = tested on: NCI-H226
ACHN = tested on: ACHN
DU-145 = tested on: DU-145
MDA-MB-435 = tested on: MDA-MB-435
SNB-19 = tested on: SNB-19
SR = tested on: SR
SF-539 = tested on: SF-539
Hs-578T = tested on: Hs-578T
SN12C = tested on: SN12C
PC-3 = tested on: PC-3
UACC-257 = tested on: UACC-257
LOX IMVI = tested on: LOX IMVI
SF-295 = tested on: SF-295
KM12 = tested on: KM12
SF-268 = tested on: SF-268
CCRF-CEM = tested on: CCRF-CEM
K562 = tested on: K562
SK-MEL-28 = tested on: SK-MEL-28
SK-MEL-2 = tested on: SK-MEL-2
MCF7 = tested on: MCF7
SNB-75 = tested on: SNB-75
NCI-H460 = tested on: NCI-H460
MOLT-4 = tested on: MOLT-4

Measured: GI50

Cc1nc(=O)n2c(c1C(=O)Nc1ccc(Cl)cc1)NCC2
inactive: A498 > 72.8 µM | HOP-92 > 79.4 µM

Cn1c2ccccc2c2ccc3c(c21)C(=O)c1ccccc1C3=O
inactive: COLO 205 26.6 µM | U-251 16.4 µM | MDA-MB-231 19.5 µM | SK-MEL-5 13.2 µM | A549 24.7 µM | IGROV-1 13.8 µM | UACC-62 16.7 µM | OVCAR-3 12.9 µM | T47D 11.7 µM | SK-OV-3 15.8 µM | A498 > 10 µM | Malme-3M 5.86 µM | SW-620 28.2 µM | NCI/ADR-RES 13.7 µM | NCI-H522 15.1 µM | EKVX 12.5 µM | OVCAR-5 > 100 µM | NCI-H23 15.7 µM | M14 27.2 µM | HCC 2998 41.9 µM | HCT-116 17.3 µM | HOP-62 18 µM | OVCAR-4 17.5 µM | TK-10 14.4 µM | HT-29 16.9 µM | HL-60 2.75 µM | RPMI-8226 12.2 µM | HOP-92 18.9 µM | OVCAR-8 17.3 µM | 786-0 17.6 µM | CAKI-1 22.2 µM | BT-549 21.1 µM | UO-31 25.5 µM | RXF 393 15.8 µM | NCI-H226 30.1 µM | ACHN 12.4 µM | DU-145 84.5 µM | MDA-MB-435 16 µM | SNB-19 37.8 µM | SR 3.29 µM | SF-539 17.3 µM | Hs-578T 14.1 µM | SN12C 20.6 µM | PC-3 13 µM | UACC-257 19.5 µM | LOX IMVI 15.9 µM | SF-295 18.2 µM | KM12 27.8 µM | SF-268 18.7 µM | CCRF-CEM 3.02 µM | K562 11.8 µM | SK-MEL-28 14.6 µM
15.1 µM: HCT-15

Nc1nc(O)c2nc(CNc3ccc(C(=O)NC(CCC(=O)O)C(=O)O)cc3)cnc2n1 (centres undefined)
inactive: U-251 > 100 µM | SK-MEL-5 > 100 µM | A549 > 100 µM | IGROV-1 > 100 µM | UACC-62 > 100 µM | OVCAR-3 > 100 µM | SK-OV-3 > 10 µM | Malme-3M > 100 µM | SK-MEL-2 > 100 µM | SW-620 > 100 µM | NCI/ADR-RES > 100 µM | NCI-H522 > 100 µM | EKVX > 100 µM | OVCAR-5 > 100 µM | MCF7 > 100 µM | NCI-H23 > 100 µM | M14 > 100 µM | HCC 2998 > 100 µM | HOP-62 > 100 µM | OVCAR-4 > 100 µM | TK-10 > 100 µM | NCI-H460 > 100 µM | HT-29 > 100 µM | RPMI-8226 > 100 µM | OVCAR-8 > 100 µM | 786-0 > 100 µM | BT-549 > 100 µM | UO-31 > 100 µM | MOLT-4 > 100 µM | RXF 393 > 100 µM | NCI-H226 > 100 µM | ACHN > 100 µM | MDA-MB-435 > 100 µM | SNB-19 > 100 µM | SR > 100 µM | SF-539 > 100 µM | Hs-578T > 100 µM | SN12C > 100 µM | PC-3 > 100 µM | UACC-257 > 100 µM | LOX IMVI > 100 µM | SF-295 > 100 µM | KM12 > 100 µM | SF-268 > 100 µM | CCRF-CEM > 100 µM | K562 > 100 µM | SK-MEL-28 > 100 µM
active: SNB-75 0.9 µM
> 100 µM: HCT-15

C[n+]1c(-c2ccc(/C=N/NC(=N)N/N=C/c3ccc(-c4cn5cc(Cl)ccc5[n+]4C)cc3)cc2)cn2cc(Cl)ccc21
inactive: COLO 205 > 100 µM | U-251 > 100 µM | MDA-MB-231 > 100 µM | SK-MEL-5 > 100 µM | A549 > 100 µM | IGROV-1 > 100 µM | T47D > 100 µM | SK-OV-3 > 100 µM | SW-620 > 100 µM | NCI/ADR-RES > 100 µM | NCI-H522 > 100 µM | EKVX > 100 µM | OVCAR-5 > 100 µM | MCF7 > 100 µM | SNB-75 > 100 µM | M14 > 100 µM | HCC 2998 > 100 µM | HCT-116 > 100 µM | HOP-62 > 100 µM | OVCAR-4 > 100 µM | TK-10 > 100 µM | NCI-H460 > 100 µM | HT-29 > 100 µM | HL-60 > 100 µM | RPMI-8226 > 100 µM | OVCAR-8 > 100 µM | 786-0 73.3 µM | UO-31 69.8 µM | MOLT-4 > 100 µM | ACHN > 100 µM | MDA-MB-435 > 100 µM | SNB-19 > 100 µM | SR > 100 µM | SF-539 > 100 µM | Hs-578T > 100 µM | SN12C > 100 µM | PC-3 > 100 µM | UACC-257 > 100 µM | SF-295 > 100 µM | KM12 > 100 µM | SF-268 > 100 µM | CCRF-CEM > 100 µM | K562 > 100 µM | SK-MEL-28 > 100 µM
> 100 µM: HCT-15
